# Reference: publication PMC6510909 (Investigational New Drugs, 2018)
# Read-outs that look alike come from different tables or passages of the source.
# How the values were obtained:
# [1] = tested on: patients with previously untreated metastatic PDAC; assay: Phase 1 efficacy: best overall response (RECIST v1.1), OS, PFS, duration of response; format: in vivo, human
# Procedure: All patients provided written informed consent prior to enrollment.
# Staging CT or MRI scans were performed at baseline and approximately every 8 weeks following Cycle 1 Day 1. Imaging modalities were maintained over the course of the study. Treatment was to continue in the absence of disease progression, unacceptable toxicity, consent withdrawal, or refusal of treatment. After discontinuation of treatment, patients were followed for safety for 30 days.
# The efficacy analyses were conducted in all enrolled patients.
# TBK1 = TBK1 inhibition estimated from plasma Cmax; design: species or system human
# [2] = Plasma pharmacokinetics on Cycle 1 Day 15, noncompartmental; format: in vivo, human; settings: for Cmax / half-life / Tmax / AUC: human, plasma, oral
# Procedure: Blood samples were collected from patients prior to the MMB dose and at specified time points up to 24 h post-dose on Cycle 1 Day 15. Pharmacokinetic (PK) parameters were estimated using Phoenix WinNonlin® software (Certara USA, Inc., Princeton, NJ) using standard noncompartmental methods.
# [3] = 100 mg MMB QD n = 7, + nab-P + G
# [4] = 150 mg MMB BID n = 3, + nab-P + G
# [5] = 150 mg MMB QD n = 4, + nab-P + G
# [6] = 200 mg MMB BID n = 4, + nab-P + G
# [7] = 200 mg MMB QD n = 7, + nab-P + G
# [8] = all cohorts, MMB + nab-P + G, n = 25
# [9] = overall study population, MMB + nab-P + G
smiles,measurement,setting,value
"N#CCNC(=O)c1ccc(-c2ccnc(Nc3ccc(N4CCOCC4)cc3)n2)cc1 [MMB, momelotinib]",Best overall response: CR,[1]; [3],"0 n, (%)"
same,Best overall response: Not evaluable,[1]; [3],"2 (28.6) n, (%)"
same,Best overall response: ORR (CR + PR),[1]; [3],"2 (28.6) n, (%)"
same,Best overall response: PD,[1]; [3],"1 (14.3) n, (%)"
same,Best overall response: PR,[1]; [3],"2 (28.6) n, (%)"
same,Best overall response: SD,[1]; [3],"2 (28.6) n, (%)"
same,Best overall response: CR,[1]; [4],"0 n, (%)"
same,Best overall response: Not evaluable,[1]; [4],"1 (33.3) n, (%)"
same,Best overall response: ORR (CR + PR),[1]; [4],"1 (33.3) n, (%)"
same,Best overall response: PD,[1]; [4],"0 n, (%)"
same,Best overall response: PR,[1]; [4],"1 (33.3) n, (%)"
same,Best overall response: SD,[1]; [4],"1 (33.3) n, (%)"
same,Best overall response: CR,[1]; [5],"0 n, (%)"
same,Best overall response: Not evaluable,[1]; [5],"0 n, (%)"
same,Best overall response: ORR (CR + PR),[1]; [5],"1 (25.0) n, (%)"
same,Best overall response: PD,[1]; [5],"1 (25.0) n, (%)"
same,Best overall response: PR,[1]; [5],"1 (25.0) n, (%)"
same,Best overall response: SD,[1]; [5],"2 (50.0) n, (%)"
same,Best overall response: CR,[1]; [6],"0 n, (%)"
same,Best overall response: Not evaluable,[1]; [6],"0 n, (%)"
same,Best overall response: ORR (CR + PR),[1]; [6],"0 n, (%)"
same,Best overall response: PD,[1]; [6],"0 n, (%)"
same,Best overall response: PR,[1]; [6],"0 n, (%)"
same,Best overall response: SD,[1]; [6],"4 (100.0) n, (%)"
same,Best overall response: CR,[1]; [7],"0 n, (%)"
same,Best overall response: Not evaluable,[1]; [7],"0 n, (%)"
same,Best overall response: ORR (CR + PR),[1]; [7],"3 (42.9) n, (%)"
same,Best overall response: PD,[1]; [7],"0 n, (%)"
same,Best overall response: PR,[1]; [7],"3 (42.9) n, (%)"
same,Best overall response: SD,[1]; [7],"4 (57.1) n, (%)"
same,Complete responses (CRs) across the dose cohorts,[1]; [8],no CRs
same,Partial responses (PRs) across the dose cohorts,[1]; [8],7
same,"Stable disease as the best response, patients",[1]; [8],52%
same,"Objective response rate (ORR), overall study population","[1]; all cohorts, MMB + nab-P + G, n = 25, 95% CI 12.1%–49.4%",28%
same,Median (95% CI) OS,[1]; [9],"8.7 (6.7, 18.8) months"
same,Median (95% CI) PFS,[1]; [9],"5.7 (5.3, 7.2) months"
same,Median (95% CI) duration of response,[1]; the 7 patients with a PR,"4.0 (0.5, not reached) months"
same,Estimated transient maximal TBK1 inhibition,TBK1; based on the Cmax of approximately 300 ng/mL,EC70
same,MMB concentrations relative to TBK1 inhibition,TBK1; pharmacokinetic analyses,too low
same,Increases in exposure with dose,[2]; 100-200 mg MMB,less than dose-proportional
same,"AUCtau, 200 mg once-daily compared with 100 mg once-daily",[2]; Cycle 1 Day 15,less than 2 fold
same,"Cmax, 200 mg once-daily compared with 100 mg once-daily",[2]; Cycle 1 Day 15,less than 2 fold
same,Cmax,"[2]; 100 mg, 100 mg MMB QD n = 6, steady state, mean (% coefficient of variation), read-out: Cmax",258 ng/mL
same,half-life,"[2]; 100 mg, 100 mg MMB QD n = 6, steady state, median (first quarter, third quarter), read-out: T 1/2 (converted)",5.4 h
same,Tmax,"[2]; 100 mg, 100 mg MMB QD n = 6, steady state, median (first quarter, third quarter), read-out: Tmax",4.5 h
same,AUC,"[2]; 100 mg, 100 mg MMB QD n = 6, steady state, mean (% coefficient of variation)",2000 ng·h/mL
same,AUC,"[2]; 150 mg, 150 mg MMB BID n = 1, steady state",1520 ng·h/mL
same,Cmax,"[2]; 150 mg, 150 mg MMB BID n = 1, steady state, read-out: Cmax",215 ng/mL
same,half-life,"[2]; 150 mg, 150 mg MMB BID n = 1, steady state, read-out: T 1/2 (converted)",5 h
same,Tmax,"[2]; 150 mg, 150 mg MMB BID n = 1, steady state, read-out: Tmax",3 h
same,Cmax,"[2]; 150 mg, 150 mg MMB QD n = 3, steady state, mean (% coefficient of variation), read-out: Cmax",200 ng/mL
same,half-life,"[2]; 150 mg, 150 mg MMB QD n = 3, steady state, median (first quarter, third quarter), read-out: T 1/2 (converted)",6.6 h
same,Tmax,"[2]; 150 mg, 150 mg MMB QD n = 3, steady state, median (first quarter, third quarter), read-out: Tmax",3.2 h
same,AUC,"[2]; 150 mg, 150 mg MMB QD n = 3, steady state, mean (% coefficient of variation)",1680 ng·h/mL
same,Cmax,"[2]; 200 mg, 200 mg MMB BID n = 3, steady state, mean (% coefficient of variation), read-out: Cmax",330 ng/mL
same,half-life,"[2]; 200 mg, 200 mg MMB BID n = 3, steady state, median (first quarter, third quarter), read-out: T 1/2 (converted)",5.5 h
same,Tmax,"[2]; 200 mg, 200 mg MMB BID n = 3, steady state, median (first quarter, third quarter), read-out: Tmax",3 h
same,AUC,"[2]; 200 mg, 200 mg MMB BID n = 3, steady state, mean (% coefficient of variation)",1980 ng·h/mL
same,Cmax,"[2]; 200 mg, 200 mg MMB QD n = 6, steady state, mean (% coefficient of variation), read-out: Cmax",364 ng/mL
same,half-life,"[2]; 200 mg, 200 mg MMB QD n = 6, steady state, median (first quarter, third quarter), read-out: T 1/2 (converted)",5.3 h
same,Tmax,"[2]; 200 mg, 200 mg MMB QD n = 6, steady state, median (first quarter, third quarter), read-out: Tmax",3.5 h
same,AUC,"[2]; 200 mg, 200 mg MMB QD n = 6, steady state, mean (% coefficient of variation)",3340 ng·h/mL
same,half-life,"[2]; Cycle 1 Day 15, across dose levels, approximately, read-out: Median terminal half-life",5 to 6.6 h
same,Tmax,"[2]; Cycle 1 Day 15, across dose levels, approximately, read-out: Time to peak plasma concentration after the first dose of MMB",3 to 4.5 h
same,Cmax,"[2]; across dose levels, approximately, read-out: Maximum plasma concentration (Cmax), overall",~300 ng/mL
same,Cmax,"[2]; converted from approximately 300 ng/mL, read-out: Maximum plasma concentration (Cmax), overall",720 nM
